Experimental data: the NIST ThermoML archive (doi:10.1016/j.fluid.2018.04.007)

Experiments:
[1] = relative permittivity at various frequencies (dimensionless); xn = mol fraction of the nth substance listed; settings: 101 kPa, Liquid, Frequency=1 MHz, Parallel plate capacitor
[2] = refractive index (Na D-line) (dimensionless); xn = mol fraction of the nth substance listed; settings: 101 kPa, Liquid, Standard Abbe refractometry

CCCCCCN [1-hexanamine] + CCCO
Settings	refractive index, 293.15 K	refractive index, 298.15 K	refractive index, 303.15 K	relative permittivity, 293.15 K	relative permittivity, 298.15 K	relative permittivity, 303.15 K
[1], x2 = 0	–	–	–	3.964	3.904	3.846
[1], x2 = 0.0708	–	–	–	4.411	4.336	4.263
[1], x2 = 0.1073	–	–	–	4.663	4.578	4.499
[1], x2 = 0.147	–	–	–	4.953	4.857	4.77
[1], x2 = 0.1935	–	–	–	5.33	5.222	5.123
[1], x2 = 0.307	–	–	–	6.436	6.286	6.148
[1], x2 = 0.3941	–	–	–	7.471	7.279	7.102
[1], x2 = 0.5056	–	–	–	9.113	8.85	8.605
[1], x2 = 0.6097	–	–	–	10.99	10.649	10.324
[1], x2 = 0.6977	–	–	–	12.847	12.426	12.034
[1], x2 = 0.8044	–	–	–	15.469	14.948	14.463
[1], x2 = 0.8406	–	–	–	16.431	15.885	15.354
[1], x2 = 0.8989	–	–	–	18.08	17.478	16.902
[1], x2 = 0.9504	–	–	–	19.605	18.955	18.33
[2], x2 = 0	1.41808	1.41563	1.41321	–	–	–
[2], x2 = 0.052	1.41775	1.41529	1.41292	–	–	–
[2], x2 = 0.1015	1.41735	1.41492	1.41258	–	–	–
[2], x2 = 0.1475	1.41693	1.41452	1.41223	–	–	–
[2], x2 = 0.2108	1.41627	1.41393	1.4116	–	–	–
[2], x2 = 0.2983	1.41509	1.41276	1.41049	–	–	–
[2], x2 = 0.3967	1.41351	1.4112	1.40878	–	–	–
[2], x2 = 0.4998	1.41113	1.40876	1.40642	–	–	–
[2], x2 = 0.604	1.40784	1.40551	1.40323	–	–	–
[2], x2 = 0.6965	1.40408	1.40199	1.39964	–	–	–
[2], x2 = 0.8013	1.39877	1.39675	1.39454	–	–	–
[2], x2 = 0.8505	1.39588	1.39373	1.39168	–	–	–
[2], x2 = 0.8953	1.39295	1.39085	1.38884	–	–	–
[2], x2 = 0.9486	1.38914	1.38704	1.38505	–	–	–

CCCCCCN [1-hexanamine] + CCCCO
Settings	refractive index, 293.15 K	refractive index, 298.15 K	refractive index, 303.15 K	relative permittivity, 293.15 K	relative permittivity, 298.15 K	relative permittivity, 303.15 K
[1], x2 = 0	–	–	–	3.965	3.904	3.845
[1], x2 = 0.051	–	–	–	4.258	4.186	4.12
[1], x2 = 0.0969	–	–	–	4.538	4.46	4.385
[1], x2 = 0.1402	–	–	–	4.828	4.739	4.656
[1], x2 = 0.2052	–	–	–	5.294	5.19	5.094
[1], x2 = 0.3095	–	–	–	6.164	6.028	5.898
[1], x2 = 0.4059	–	–	–	7.139	6.965	6.797
[1], x2 = 0.5054	–	–	–	8.352	8.121	7.905
[1], x2 = 0.593	–	–	–	9.623	9.333	9.058
[1], x2 = 0.6983	–	–	–	11.376	11.005	10.656
[1], x2 = 0.8047	–	–	–	13.472	13.003	12.566
[1], x2 = 0.8525	–	–	–	14.558	14.054	13.565
[1], x2 = 0.9035	–	–	–	15.741	15.182	14.656
[1], x2 = 0.946	–	–	–	16.795	16.197	15.632
[2], x2 = 0	1.4181	1.41565	1.41322	–	–	–
[2], x2 = 0.0552	1.41812	1.41564	1.41324	–	–	–
[2], x2 = 0.0896	1.418	1.41556	1.41319	–	–	–
[2], x2 = 0.1588	1.41781	1.41542	1.41306	–	–	–
[2], x2 = 0.1967	1.41768	1.41529	1.41294	–	–	–
[2], x2 = 0.3035	1.41702	1.4147	1.4124	–	–	–
[2], x2 = 0.4077	1.41603	1.41381	1.41148	–	–	–
[2], x2 = 0.4984	1.41487	1.41267	1.4104	–	–	–
[2], x2 = 0.6004	1.41298	1.41079	1.40852	–	–	–
[2], x2 = 0.6977	1.41065	1.40845	1.40621	–	–	–
[2], x2 = 0.7982	1.40746	1.40534	1.40316	–	–	–
[2], x2 = 0.8451	1.40577	1.40368	1.40155	–	–	–
[2], x2 = 0.8996	1.40359	1.40158	1.39949	–	–	–
[2], x2 = 0.9461	1.40166	1.39965	1.39765	–	–	–

CCCCCCN [1-hexanamine] + CO
Settings	refractive index, 293.15 K	refractive index, 298.15 K	refractive index, 303.15 K	relative permittivity, 293.15 K	relative permittivity, 298.15 K
[1], x2 = 0	–	–	–	3.964	3.904
[1], x2 = 0.0534	–	–	–	4.367	4.293
[1], x2 = 0.122	–	–	–	4.964	4.87
[1], x2 = 0.1906	–	–	–	5.681	5.564
[1], x2 = 0.3081	–	–	–	7.244	7.085
[1], x2 = 0.395	–	–	–	8.783	8.557
[1], x2 = 0.4982	–	–	–	11.109	10.806
[1], x2 = 0.6035	–	–	–	14.21	13.794
[1], x2 = 0.7016	–	–	–	17.646	17.127
[1], x2 = 0.8002	–	–	–	21.864	21.254
[1], x2 = 0.8485	–	–	–	24.251	23.597
[1], x2 = 0.8984	–	–	–	26.928	26.203
[1], x2 = 0.9496	–	–	–	30.037	29.216
[1], x2 = 0.9834	–	–	–	32.343	31.44
[2], x2 = 0	1.41808	1.41563	1.41321	–	–
[2], x2 = 0.0534	1.41741	1.41499	1.41261	–	–
[2], x2 = 0.0942	1.41681	1.41442	1.41204	–	–
[2], x2 = 0.1871	1.41513	1.41282	1.4104	–	–
[2], x2 = 0.2977	1.4125	1.41017	1.40773	–	–
[2], x2 = 0.4039	1.40889	1.40657	1.40412	–	–
[2], x2 = 0.4917	1.4048	1.40243	1.4	–	–
[2], x2 = 0.5977	1.3979	1.3955	1.39316	–	–
[2], x2 = 0.6997	1.38836	1.38615	1.38372	–	–
[2], x2 = 0.7995	1.37505	1.37296	1.37067	–	–
[2], x2 = 0.8475	1.36685	1.36479	1.36257	–	–
[2], x2 = 0.8978	1.35657	1.3546	1.3524	–	–
[2], x2 = 0.9496	1.34385	1.34182	1.33968	–	–
[2], x2 = 0.9834	1.33399	1.33194	1.3298	–	–

CCCCCCN [1-hexanamine] + CCCCCO
Settings	refractive index, 293.15 K	refractive index, 298.15 K	refractive index, 303.15 K	relative permittivity, 293.15 K	relative permittivity, 298.15 K	relative permittivity, 303.15 K
[1], x2 = 0	–	–	–	3.967	3.905	3.846
[1], x2 = 0.052	–	–	–	4.248	4.176	4.11
[1], x2 = 0.1079	–	–	–	4.563	4.485	4.408
[1], x2 = 0.1601	–	–	–	4.876	4.785	4.701
[1], x2 = 0.2014	–	–	–	5.146	5.047	4.957
[1], x2 = 0.31	–	–	–	5.924	5.796	5.675
[1], x2 = 0.3982	–	–	–	6.653	6.494	6.348
[1], x2 = 0.5031	–	–	–	7.689	7.486	7.298
[1], x2 = 0.6013	–	–	–	8.827	8.567	8.319
[1], x2 = 0.6916	–	–	–	10.025	9.702	9.397
[1], x2 = 0.7952	–	–	–	11.649	11.246	10.864
[1], x2 = 0.8396	–	–	–	12.419	11.973	11.555
[1], x2 = 0.9006	–	–	–	13.582	13.084	12.61
[1], x2 = 0.9431	–	–	–	14.457	13.913	13.397
[2], x2 = 0	1.41813	1.41563	1.41324	–	–	–
[2], x2 = 0.0472	1.41838	1.41592	1.4136	–	–	–
[2], x2 = 0.1005	1.41862	1.41622	1.41392	–	–	–
[2], x2 = 0.1648	1.41884	1.41649	1.41424	–	–	–
[2], x2 = 0.2022	1.41896	1.4166	1.41438	–	–	–
[2], x2 = 0.3102	1.41908	1.41679	1.41458	–	–	–
[2], x2 = 0.3982	1.41895	1.41671	1.41451	–	–	–
[2], x2 = 0.5002	1.41846	1.41623	1.41407	–	–	–
[2], x2 = 0.6005	1.41756	1.41543	1.41329	–	–	–
[2], x2 = 0.7122	1.41609	1.41403	1.41193	–	–	–
[2], x2 = 0.7963	1.41463	1.41259	1.41054	–	–	–
[2], x2 = 0.8457	1.41364	1.41164	1.40958	–	–	–
[2], x2 = 0.8982	1.41246	1.41048	1.40844	–	–	–
[2], x2 = 0.9362	1.41153	1.40957	1.40754	–	–	–
